Experimental data: patent US20220127297A1, “Novel Antibacterial 3"-Derivatives Of 4,6-Disubstituted 2,5-Dideoxystreptamine Aminoglycoside Antibiotics” (AGILeBiotics B.V., priority 2018, published 2022)
In brackets after ≈: the same amount, converted by molar mass. Read-outs that look alike come from different tables or passages of the source.

What was measured:
K. pneumoniae DSM 26371 = assay: MIC 50, broth micro-dilution, DSM strains; assay type: cell-based, Klebsiella pneumoniae
Source text: (§1) 3.2 Against Selected Bacteria of the ESKAPE Panel and Enterococcus faecalis (DSM Strains)
(§2) Tested reference compounds. Amikacin sulfate (Cat. No. 01693, Chem-Impex), Gentamicin sulfate (Cat. No. G4918, Sigma Aldrich).
(§3) Microbial strains. Enterococcus faecalis DSM 2570, Klebsiella pneumoniae DSM 26371, Acinetobacter baumannii DSM 105126, Enterobacter cloacae 3MRGN (clinical bronchial aspirate isolate).
(§4) Culture media and equipment. BBL™ Mueller Hinton Broth 2 (Lot. BCBW1143, Cat. No. 70192, Sigma); Trypcase Soy Blood-agar plates (Cat. No. 43001, Biomérieux); Cryoinstant (contains 15% glycerol; Cat. No. 822070ZA, VWR International); GasPak™ EZ Standard Incubation Container (Cat. No. 260671, Becton Dickinson); GasPak™ EZ Campy Container System Sachets (Cat. No. 260680, Becton Dickinson); 96-well deep well plate, 1 mL (Cat. No. 0030506.200, Eppendorf); Plate lid (Cat. No. 0030131.525, Eppendorf); 96-well plate, F-bottom (Cat. No. 260860, Nunc); Incubator (Sartorius Certomat BS-1); Laminar flow (Heraeus HS12); UV/VIS meter (Perkin Elmer Lambda Bio+); Platereader (Tecan Infinite M200 Pro).
(§5) Compound preparation. Compounds were prepared in MH2 media at a concentration of 5 mM and stored at 4° C. For testing, solutions of 128 μM were prepared in MH2, for tests against E. faecalis a solution of 512 μM was prepared. Out of these working solutions, 400 μL was transferred to wells in the first column of 96-well deep well plates. Each compound was transferred in triplicate. Plates were previously filled with 200 μL of MH2 media in all wells except for the wells in the first column. After compound and antibiotic addition, the compounds were serial two-fold diluted by transferring 200 μL from the first to the second column, then from the second to the third column and so on. Finally, 200 μL was removed from the last column.
(§6) Inoculum preparation. Microorganisms used were all revived from 15% glycerol storage in Croinstant tubes at −28° C. by plating them on blood agar plates. A. baumanni, and E. cloacae were grown aerobically at 37° C., E. faecalis was grown microaerophilically at 37° C., and K. pneumoniae was grown aerobically at 37° C. Plates were stored at 4° C. for up to two weeks, after which new plates were prepared from −28° C. A single colony was inoculated in MH2 media and grown at 37° C. and 200 rpm to an optical density (measured by UV/Vis spectroscopy) of 0.6-0.8 at 600 nm. Out of these suspensions, actual inoculums were prepared by diluting them to an optical density of 0.1 in MH2 media. From these inoculums, 200 μL was transferred to each well, resulting in a final compound concentration range of 64 μM-31.3 nM for, K. pneumoniae, A. baumanni, and E. cloacae, and 256 μM-125 nM for E. faecalis. Plates inoculated with E. faecalis were placed inside a GasPak™ Container System with GasPak™ Campy Container System sachets. All plates were incubated at 200 rpm for 18 h under the microorganism culturing conditions mentioned above.
(§7) MIC determination. After 18 h of growth, 200 μL was transferred to a 96-well F-bottom plate. The optical density was determined by a plate reader at 600 nm, with 10 s shaking before reading. Triplicate measurements were averaged, and a growth curve was plotted in Excel. The first column in which the growth reached half the value of maximum growth was determined as the MIC50 value for that particular compound.
(§8) MIC50. The MIC50 of a compound was assigned at which the bacterial growth reached half the value of maximum growth.

[1] = test system: Enterobacter cloacae 3MRGN (clinical bronchial aspirate isolate); assay: MIC 50, broth micro-dilution, clinical isolate; assay type: cell-based; details: E. Cloacae clinical isolate
Source text: as §1, §2, §3, §4, §5, §6, §7, §8

[2] = Klebsiella pneumoniae, DSM26371, K. pneumoniae DSM 26371, read-out: MIC 50
[3] = Enterobacter cloacae, read-out: MIC 50

Question: With `CNCCNC(=N)NC1[C@@H](O)C(OC2[C@@H](F)[C@H](O[C@H]3OC(CN)[C@@H](O)CC3N)C(N)C[C@H]2NC(=O)[C@@H](O)CCN)O[C@H](CO)[C@H]1O` (stereo partly shown) [ABX5038, Tobra-AHB-F-Gua 2-(methylamino)ethyl] as the compound, how does the MIC50 (K. pneumoniae DSM 26371; [2]) read?
Answer: 0.5 µM (≈ 0.335 µg/mL)

Question: And the MIC50 [1, 3]?
Answer: 0.5 µM (≈ 0.335 µg/mL)

Question: With `N=C(N)NC1[C@@H](O)C(OC2[C@@H](F)[C@H](O[C@H]3OC(CNCCO)[C@@H](O)CC3N)C(N)C[C@H]2NC(=O)[C@@H](O)CCN)O[C@H](CO)[C@H]1O` (stereo partly shown) [ABX5045, 6N-2-hydroxy-ethyl-Tobra-AHB-F-Gua] as the compound, how does the MIC50 (K. pneumoniae DSM 26371; [2]) read?
Answer: 0.5 µM (≈ 0.328 µg/mL)

Question: And the MIC50 [1, 3]?
Answer: 1 µM (≈ 0.657 µg/mL)

Question: Which MIC50 (K. pneumoniae DSM 26371; [2]) does the source give for `N=C(N)NC1[C@@H](O)C(OC2[C@@H](F)[C@H](O[C@H]3OC(CN)[C@@H](O)[C@H](O)C3O)C(N)C[C@H]2NC(=O)[C@@H](O)CCN)O[C@H](CO)[C@H]1O` (stereo partly drawn) [ABX3003, 3′epi-KanaA-AHB-F-Gua] here?
Answer: 0.5 µM (≈ 0.315 µg/mL)

Question: And the MIC50 [1, 3]?
Answer: 1 to 2 µM (≈ 0.63 to 1.26 µg/mL)

Question: Which MIC50 (K. pneumoniae DSM 26371; [2]) does the source give for `N=C(NCC1CC1)NC1[C@@H](O)C(OC2[C@@H](F)[C@H](O[C@H]3OC(CN)[C@@H](O)CC3N)C(N)C[C@H]2NC(=O)[C@@H](O)CCN)O[C@H](CO)[C@H]1O` (stereo partly shown) [ABX5027, Tobra-AHB-F-Gua cyclopropylmethyl] here?
Answer: 0.125 µM (≈ 0.0833 µg/mL)

Question: And the MIC50 [1, 3]?
Answer: 0.5 µM (≈ 0.333 µg/mL)

Question: How did the “MIC50” value (K. pneumoniae DSM 26371; K. pneumoniae DSM 26371) turn out when `NCC[C@H](O)C(=O)N[C@@H]1CC(N)[C@@H](O[C@H]2OC(CN)[C@@H](O)CC2N)[C@H](O)C1OC1O[C@H](CO)[C@@H](O)C(N)[C@H]1O` (stereo partly shown) [ABX5004, Tobra-AHB] was run?
Answer: 1 µM (≈ 0.569 µg/mL)

Question: What about the “MIC50” value [1] of the same compound?
Answer: 1 µM (≈ 0.569 µg/mL)

Question: Which MIC50 (K. pneumoniae DSM 26371; [2]) does the source give for `N=C(NCc1ccncc1)NC1[C@@H](O)C(OC2[C@@H](F)[C@H](O[C@H]3OC(CN)[C@@H](O)CC3N)C(N)C[C@H]2NC(=O)[C@@H](O)CCN)O[C@H](CO)[C@H]1O` (stereo partly shown) [ABX5048, Tobra-AHB-F-Gua pyridin-4-yl methyl] here?
Answer: 0.5 µM (≈ 0.352 µg/mL)

Question: And the MIC50 [1, 3]?
Answer: 1 µM (≈ 0.704 µg/mL)

Question: What does the source list for `NCC[C@H](O)C(=O)N[C@@H]1CC(N)[C@@H](O[C@H]2OC(CN)[C@@H](O)[C@@H](O)C2N)[C@H](F)C1OC1O[C@H](CO)[C@@H](O)C(N)[C@H]1O` (stereo partly drawn) [ABX4003, 3′Epi-KanaB-AHB-F]?
Answer: MIC50 (K. pneumoniae DSM 26371; K. pneumoniae DSM 26371): 0.5 µM (≈ 0.293 µg/mL); MIC50 [1]: 4 µM (≈ 2.35 µg/mL)

Question: With `N=C(N)NC1[C@@H](O)C(OC2[C@@H](O)[C@H](O[C@H]3OC(CN)[C@@H](O)CC3N)C(N)C[C@H]2NC(=O)[C@@H](O)CCN)O[C@H](CO)[C@H]1O` (stereo partly shown) [ABX5005, Tobra-AHB-Gua] as the compound, how does the “MIC50” value (K. pneumoniae DSM 26371; K. pneumoniae DSM 26371) read?
Answer: 0.25 µM (≈ 0.153 µg/mL)

Question: And the “MIC50” value [1]?
Answer: 1 µM (≈ 0.611 µg/mL)

Question: Which MIC50 (K. pneumoniae DSM 26371; [2]) does the source give for `N=C(NC[C@H]1CCNC1)NC1[C@@H](O)C(OC2[C@@H](F)[C@H](O[C@H]3OC(CN)[C@@H](O)CC3N)C(N)C[C@H]2NC(=O)[C@@H](O)CCN)O[C@H](CO)[C@H]1O` (stereo partly drawn) [ABX5042, Tobra-AHB-F-Gua (S) pyrrolidine-3-ylmethyl] here?
Answer: 0.5 µM (≈ 0.348 µg/mL)

Question: What about the MIC50 [1, 3] of the same compound?
Answer: 0.25 µM (≈ 0.174 µg/mL)

Question: How did the MIC50 (K. pneumoniae DSM 26371; [2]) turn out when `NCC[C@H](O)C(=O)N[C@@H]1C[C@H](N)[C@@H](O[C@H]2O[C@H](CN)[C@@H](O)[C@H](O)[C@H]2O)[C@H](O)[C@H]1O[C@H]1O[C@H](CO)[C@@H](O)[C@H](N)[C@H]1O` [Amikacin, amikacin, reference compound] was run?
Answer: 0.5 µM (≈ 0.293 µg/mL)

Question: What about the MIC50 [1, 3] of the same compound?
Answer: 2 µM (≈ 1.17 µg/mL)

Question: With `NCC[C@H](O)C(=O)N[C@@H]1CC(N)[C@@H](O[C@H]2OC(CN)[C@@H](O)CC2N)[C@H](F)C1OC1O[C@H](CO)[C@@H](O)C(N)[C@H]1O` (stereo partly shown) [ABX5024, Tobra-AHB-F] as the compound, how does the “MIC50” value (K. pneumoniae DSM 26371; K. pneumoniae DSM 26371) read?
Answer: 1 µM (≈ 0.571 µg/mL)

Question: What about the “MIC50” value [1] of the same compound?
Answer: 1 µM (≈ 0.571 µg/mL)

Question: Which results are given for `C[C@@H](N)CCNC(=N)NC1[C@@H](O)C(OC2[C@@H](F)[C@H](O[C@H]3OC(CN)[C@@H](O)CC3N)C(N)C[C@H]2NC(=O)[C@@H](O)CCN)O[C@H](CO)[C@H]1O` (stereo partly drawn) [ABX5047, Tobra-AHB-F-Gua (R) 3-amino-butyl]?
Answer: MIC50 (K. pneumoniae DSM 26371; [2]): 0.25 µM (≈ 0.171 µg/mL); MIC50 [1, 3]: 0.25 to 0.5 µM (≈ 0.171 to 0.342 µg/mL)

Question: For `N=C(NC[C@@H]1CNCCO1)NC1[C@@H](O)C(OC2[C@@H](F)[C@H](O[C@H]3OC(CN)[C@@H](O)CC3N)C(N)C[C@H]2NC(=O)[C@@H](O)CCN)O[C@H](CO)[C@H]1O` (stereo partly drawn) [ABX5040, Tobra-AHB-F-Gua (S) morpholin-2-yl methyl], which MIC50 (K. pneumoniae DSM 26371; [2]) is on record?
Answer: 0.5 µM (≈ 0.356 µg/mL)

Question: What about the MIC50 [1, 3] of the same compound?
Answer: 0.25 µM (≈ 0.178 µg/mL)

Question: For `CC(C)(C)CCNC(=N)NC1[C@@H](O)C(OC2[C@@H](F)[C@H](O[C@H]3OC(CN)[C@@H](O)CC3N)C(N)C[C@H]2NC(=O)[C@@H](O)CCN)O[C@H](CO)[C@H]1O` (stereo partly shown) [ABX5025, Tobra-AHB-F-Gua 2-tBu-ethyl], which MIC50 (K. pneumoniae DSM 26371; [2]) is on record?
Answer: 0.5 µM (≈ 0.348 µg/mL)

Question: And the MIC50 [1, 3]?
Answer: 0.5 to 1 µM (≈ 0.348 to 0.697 µg/mL)
